Experimental findings from paper PMC6458995, “MAP4K4 Inhibition Promotes Survival of Human Stem Cell-Derived Cardiomyocytes and Reduces Infarct Size In Vivo” (Cell Stem Cell, 2019) are described below.

One series has as its system NUAK. The series is described as follows: HTRF Transcreener ADP kinase assay. In kind it is biochemical, human.
The next series concerns vCor.4U hiPSC-CMs. The series is described as follows: Calcium transients (FLIPR Tetra, EarlyTox Cardiotoxicity dye). In kind it is cell-based, human. As to the method:
Calcium transients in hiPSC-CMs were assessed using FLIPR Tetra instrumentation and Early Tox Cardiotoxicity kits (Molecular Devices). vCor.4U cells were subjected to graded concentrations of menadione and the MAP4K4 inhibitors as described for the viability assays. Compound concentrations and time course are denoted in the figure and figure legend. Vehicle controls were used throughout. Cells were incubated for 2-3 hr at 37°C in 5% CO2, using 3 μL well^-1 of EarlyTox Cardiotoxicity Kit concentrate as the fluorescent calcium indicator dye. Plates were then removed from the incubator and allowed to reach room temperature. Intracellular calcium oscillations were monitored using a FLIPR Tetra system with excitation LED bank 470-495 nm and emission filter set 515-575 nm (Molecular Devices). Fluorescence intensity signals were acquired for 600 reads at 1.2 ms intervals. Beat frequency, median peak height, median peak width and total peak area were calculated and compared with the baseline control and with menadione alone. Protection of calcium cycling by DMX-4804 was confirmed in 3 independent experiments with overlapping conditions, and results are shown for a full dose-response study, analyzing 4 wells for each point.

The subject of a further series is vCor.4U cells as hEHT. The series is described as follows: 3D human engineered heart tissue (hEHT) challenged with menadione. In kind it is cell-based. Here is the method:
Fibrin-based hEHTs were generated between flexible silicone posts as described ([Breckwoldt et al., 2017], [Hansen et al., 2010]), with minor modifications. 1.8 mL well^-1 of 2% agarose in PBS was pipetted into 24-well plates, Teflon spacers (EHT Technologies) were placed inside each well as a casting mold, and the agarose was left to set for 15 min. The spacers were removed from each well, and a pair of polydimethylsiloxane posts was inserted from above (EHT Technologies: Young’s modulus […], length 10 mm, radius, 0.5 mm). VCor.4U cells (4 × 10^6) were resuspended in 400 μL of master mix (340 μL DMEM (Biochrom), 10% heat-inactivated fetal calf serum (GIBCO), 2 mM glutamine (Life Technnologies), 1% penicillin/streptomycin (GIBCO); 60 μL 2x DMEM (GIBCO), 20% horse serum (GIBCO), 2% penicillin/streptomycin). Bovine fibrinogen (Sigma) was added (10 μL: 200 mg mL^-1, 95 μg mL^-1 aprotinin (Sigma), 0.9% NaCl), and 100 μL aliquots were transferred to PCR tubes containing 3 μL of 100 U ml^-1 thrombin (Biopur) in 60% PBS. Cell suspensions then were immediately transferred to the agarose casting molds. After 90 min to allow solidification, 300 μL well^-1 of EHT medium was added (DMEM, 10% horse serum, 0.1% human insulin (Sigma), 0.1% aprotinin), to hydrate the gels for a further 50 min. The hEHTs were then transferred to fresh 24-well plates with 1.5 mL well^-1 of EHT medium, which was replaced every Monday, Wednesday, and Friday for 12 d. Auxotonic force measurements were performed daily by optical tracking ([Hansen et al., 2010]) and calculated on the basis of post deflection distance (δ), post length (L), post radius (R), and the elastic modulus (E), using the formula F = 3πER^4δ4L^-3 ([Schaaf et al., 2011]) and the indicated post parameters. Beating rate and force generation increased between d 5 and 10 and were stable for at least 7 d thereafter. On day 12, the hEHTs were challenged for 24 hr with menadione, in the absence or presence of DMX-5804. Medium, including DMX-5804, was replenished daily. […]

The subject of series [1] is S. typhimurium TA98 and TA100. The series is described as follows: Ames genotoxicity reverse mutation assay. Here is the method:
Approximately 10^7 bacteria were exposed in triplicate to the test agent (six concentrations, 7.8-250 μg ml^-1), a vehicle control (vehicle) and a positive control for 90 min in low-histidine medium (sufficient for about 2 doublings.) The strains used were S. typhimurium TA98 (hisD3052, rfa, uvrB / pKM101; detects frameshift mutations) and TA100: hisG45, rfa, uvrB / pKM101; detects base-pair substitutions). The cultures were then diluted into indicator medium lacking histidine, dispensed into 384-well plates, and incubated for 48 hr at 37°C. The test was performed in the absence and presence of S9 metabolic activation, to identify pro-mutagens as well as directly acting mutagens. Only cells that underwent reversion grow, resulting in a color change. A two-fold increase over the vehicle control in the number of colonies indicates a positive response.

The target in the next series is cardiac MAP4K4 (Mus musculus, UniProt P97820). The series is described as follows: Target engagement in vivo (desthiobiotin-ATP probe on cardiac lysates after oral dosing). To be noted: dose-response and time course.
cardiac MAP4K4, sequence (P97820 2-310 limits assumed): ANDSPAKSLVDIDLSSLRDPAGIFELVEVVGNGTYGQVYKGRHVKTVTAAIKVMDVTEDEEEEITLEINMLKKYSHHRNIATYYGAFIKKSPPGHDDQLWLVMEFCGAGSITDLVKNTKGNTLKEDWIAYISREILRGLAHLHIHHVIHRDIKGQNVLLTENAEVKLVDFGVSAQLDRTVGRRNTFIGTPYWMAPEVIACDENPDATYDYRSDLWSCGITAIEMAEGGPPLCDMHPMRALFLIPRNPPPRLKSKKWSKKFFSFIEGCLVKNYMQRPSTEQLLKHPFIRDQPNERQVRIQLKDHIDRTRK
Another series has as its system infarct size. The series is described as follows: Myocardial infarction (ischemia-reperfusion), infarct size by TTC/Evans blue. In kind it is in vivo, CD-1 female mice. To be noted: 50 mg kg^−1 twice by gavage 10 h apart.
The next series concerns the target T1, endogenous MAP4K4 (Homo sapiens, UniProt O95819).
T1 construct: endogenous in cells; host or cells: HEK293T
The series is described as follows: In-cell MAP4K4 activity, immune complex kinase assay in HEK293T cells. In kind it is cell-based. To be noted: HEK-293T, 1 h after treatment. As to the method: MAP4K4 was precipitated using M2 antibody to the FLAG epitope, or antibody to endogenous MAP4K4, and protein G-Sepharose. Precipitates were washed twice in lysis buffer, twice with 500 mM LiCl, 100 mM Tris-HCl, pH 7.6, 0.1% Triton X-100, twice with kinase buffer (20 mM MOPS, pH 7.6, 2 mM EGTA, 10 mM MgCl2, 1 mM dithiothreitol, 0.1% Triton X-100, 1 mM Na3VO4), and were then mixed with 10 μg of myelin basic protein (Invitrogen) as substrate, 15 μM ATP, and 10 μCi [γ-^32P]ATP in […] of kinase buffer for 30 min at 30°C ([Yao et al., 1999]). His-MKK6 was used as the substrate for TAK1 ([Zhang et al., 2000]). Reaction mixtures were resolved by SDS-polyacrylamide gel electrophoresis, then were analyzed by western blotting and autoradiography.

pEC50: −log10 of the molar value.

T1 sequence (O95819 whole entry): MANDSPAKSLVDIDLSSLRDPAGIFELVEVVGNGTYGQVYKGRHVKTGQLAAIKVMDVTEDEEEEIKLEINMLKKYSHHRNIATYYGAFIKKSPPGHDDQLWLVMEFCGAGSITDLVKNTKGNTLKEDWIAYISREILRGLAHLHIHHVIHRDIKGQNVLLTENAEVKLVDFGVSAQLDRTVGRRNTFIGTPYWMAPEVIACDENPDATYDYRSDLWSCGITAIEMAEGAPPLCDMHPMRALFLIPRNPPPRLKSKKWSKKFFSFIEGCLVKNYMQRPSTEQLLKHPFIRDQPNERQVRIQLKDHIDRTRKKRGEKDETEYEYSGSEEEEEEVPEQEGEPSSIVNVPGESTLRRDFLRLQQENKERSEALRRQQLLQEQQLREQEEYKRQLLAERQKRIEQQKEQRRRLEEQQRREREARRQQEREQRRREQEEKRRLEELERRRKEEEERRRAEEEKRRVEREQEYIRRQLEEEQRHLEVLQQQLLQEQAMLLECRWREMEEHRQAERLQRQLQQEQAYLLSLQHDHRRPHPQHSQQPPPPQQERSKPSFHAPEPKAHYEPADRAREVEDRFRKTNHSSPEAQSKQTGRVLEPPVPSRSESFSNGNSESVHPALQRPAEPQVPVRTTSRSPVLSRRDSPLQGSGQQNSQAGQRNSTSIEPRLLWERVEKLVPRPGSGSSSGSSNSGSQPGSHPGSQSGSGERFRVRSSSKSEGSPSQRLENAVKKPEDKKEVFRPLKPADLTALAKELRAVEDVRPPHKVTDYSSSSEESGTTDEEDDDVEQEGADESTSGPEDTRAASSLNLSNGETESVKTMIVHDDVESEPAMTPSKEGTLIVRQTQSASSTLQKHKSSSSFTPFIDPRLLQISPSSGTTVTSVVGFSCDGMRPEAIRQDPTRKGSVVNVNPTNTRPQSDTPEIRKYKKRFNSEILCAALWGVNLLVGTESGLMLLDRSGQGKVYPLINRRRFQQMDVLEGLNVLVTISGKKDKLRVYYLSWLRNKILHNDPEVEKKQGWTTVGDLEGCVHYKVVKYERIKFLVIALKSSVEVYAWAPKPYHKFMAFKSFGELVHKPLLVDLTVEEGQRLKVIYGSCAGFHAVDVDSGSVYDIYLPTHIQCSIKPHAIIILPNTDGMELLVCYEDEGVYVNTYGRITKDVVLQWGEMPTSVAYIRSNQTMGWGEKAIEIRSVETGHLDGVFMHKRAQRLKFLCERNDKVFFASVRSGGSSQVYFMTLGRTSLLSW

On to `COCCOc1ccc(-c2cn(-c3ccccc3)c3nc[nH]c(=O)c23)cc1` [DMX-5804, 5-[4-(2-methoxy-ethoxy)-phenyl]-7-phenyl-3,7-dihydro-pyrrolo[2,3-d]pyrimidin-4-one], for which the “Fold Selectivity” value with NUAK (NUAK versus MAP4K4) amounted to 47. Also, the “DMX-5804 vs F1386-0303” value in the series with NUAK (ratio of fold selectivity, NUAK) stood at 2.35. Further, the pEC50 in the series on vCor.4U hiPSC-CMs (Homo sapiens, calcium cycling, menadione, vCor.4U, read-out: concentration preserving ∼50% of peak area and peak height) was 5.70 to 6.30. Also, in the series with vCor.4U hiPSC-CMs (menadione present throughout), the “duration for which protection of calcium cycling was maintained” value was “up to 96 h”. For the same compound, the “spontaneous calcium cycling after hypoxia-reoxygenation” value in the series on vCor.4U hiPSC-CMs (vCor.4U, 8 hr after hypoxia-reoxygenation, 10 μM) is “protection was conferred”. In the series with vCor.4U hiPSC-CMs (vCor.4U, no menadione), the “effect on baseline calcium cycling” value was “no effect”. The “cell death from menadione in hEHT” value with vCor.4U cells as hEHT (10 μM, first 24 h) is given as “suppressed”. Also, in the series on vCor.4U cells as hEHT (2D culture or hEHT), the “adverse effect on cardiomyocyte viability, rhythmicity, calcium handling, mitochondrial function, force generation” value is “no adverse effect”. Also, in the series on vCor.4U cells as hEHT (3 or 10 μM, 60 min and 24 h, not later), the “rescue of contractile function in hEHT” value was “virtually complete”. Besides, the “Ames test of mutagenic potential” value in series [1] is reported as “no off-target effect”. For the same compound, at cardiac MAP4K4, the “inhibition of ATP binding to cardiac MAP4K4 in vivo” value is reported as “substantiated”. For the same compound, the “infarct size as a proportion of the area at ischemic risk” value was 25.6% in the series on infarct size (post-injury treatment (1 h after reperfusion), vehicle 55.1%) and 20.9% in the series with infarct size (pre-injury treatment (20 min prior to ischemia), vehicle 48.5%).
Consider `Oc1ncnc2c1c(-c1ccccc1)cn2-c1ccccc1` [F1386-0303, 5,7-diphenyl-7H-pyrrolo[2,3-d]pyrimidin-4-ol], for which the inhibition (in general, the percentage by which the read-out fell short of the control) at 10 µM against endogenous MAP4K4 is 70%.
